How the values were obtained:
NF-κB in Jurkat cells = experiment: EMSA of TNF-induced NF-κB activation; format: cell-based, human; conditions: for TNF-induced NF-κB activation: Jurkat cells; for decrease in NF-κB levels: pretreatment with 2 ml (so in the source), TNF 100 pM
Description: Next, in order to further study the mechanism by which the active components inhibited tumor cells, the TNF-alpha induced activation of the transcription factor NF-κB was analyzed in Jurkat cells (3×10^6) which had been treated with 1-2 μg/ml of UA-BRF-004-DELEP-F035 and UA-BRF-004Pod-DELEP-F094. The study was carried out as follows: Jurkat cells were pretreated with 1-2 μg/ml of F035 or F094 for 15 h at 37° C. Cells were harvested and resuspended in 1 ml RPMI and treated with 100 pM of TNF-alpha for 30 min at 37° C. After TNF-alpha treatment, nuclear extracts were prepared according to Schreiber et al (1989). Briefly, the cells were washed with ice cold PBS and suspended in 0.4 ml of lysis buffer (10 mM HEPES, pH 7.9, 10 mM KCl, 0.1 mM EDTA, […], 0.1 mM EGTA, 1 mM dithiothreitol, 0.5 mM PMSF, 2 μg/ml of leupeptin, 2 μg/ml of aprotinin and 0.5 mg/ml benzamidine). The cells were allowed to sit on ice for 15 min and 25 μl of 10% Nonidet-40 was added to the cells. The tubes were mixed on the vortex and microcentrifuged for 30 s. The nuclear pellet was resuspended in 25 μl of ice cold nuclear extraction buffer (20 mM HEPES, pH 7.9, 0.4 M NaCl, 1 mM EDTA, 1 mM EGTA, 1 mM dithiothreitol, 1 mM PMSF, 2 μg/ml leupeptin, 2.0 μg/ml aprotinin and 0.5 mg/ml benzamidine) and tubes were incubated on ice with intermittent agitation. The nuclear extract was microcentrifuged for […] at 4° C. and supernatants were stored at −70° C.
An electrophoretic mobility shift assay was performed by incubating the nuclear extracts (7 μg of protein) with ^32P-labeled NF-κB oligonucleotides (SEQ ID NO:1; NF-κB consensus oligonucleotide; Santa Cruz Biotechnology) in presence of 0.5 μg of poly di-dc in a binding buffer (25 mM HEPES, pH 7.9, 0.5 mM EDTA, 0.5 mM dithiothreitol, 1% Nonidet P-40, 5% glycerol and 50 mM NaCl for 20 min at 37° C.) (Nabel and Baltimore, 1987; Collart et al., 1990; Hassanain et al., 1993). The DNA-protein complex formed was separated from free oligonucleotide on 5% native polyacrylamide gel using buffer containing 50 mM Tris, 200 mM glycine and 1 mM EDTA. The gel was fixed in 10% acetic acid and dried and the bands were visualized using autoradiography with intensifying screen at −70° C.
An EMSA to study the effect of crude (F035) and pure extracts D1 and G1 on TNF (Genetech Inc.) induced NF-κB was done as described earlier. Jurkat cells (1×10^6/ml) were treated with different concentrations of crude and pure extracts for 15 hr at 37° C. Next the cells were exposed to 100 pM of TNF for 15 min at 37° C. Nuclear extracts were prepared as described before. Nuclear extracts were incubated with 16 fmol ^32P-end-labeled 45-mer double-stranded NF-κB oligonucleotide from the human immunodeficiency virus long terminal repeat,
for 15 min at 37° C. in the presence of 2 μg of poly (dI-dC). The DNA protein complex was separated from free oligonucleotide on 7.5% native polyacrylamide gels. The radioactive bands from the dried gels were visualized and quantitated by a PhosphoImager (Molecular Dynamics, Sunnyvale, Calif.) using ImageQuant software.
Treatment of Cells with Monoterpene Glycosides. Jurkat cells were taken at 1×10^6/ml in complete medium and treated with 2 μg/ml of F094, monoterpene/triterpene glycoside D1, or monoterpene/triterpene glycoside G1 for 8-16 h at 37° C. At the end of the treatment, cells were washed in complete medium and counted. An equal number of viable cells was used for different experiments.
Preparation of Cytoplasmic and Nuclear Extracts. Jurkat cells (2×10^6/ml) treated with F094 or the isolated monoterpene/triterpene glycosides G1 and/or D1 were exposed to TNF (1 nM for 15 min) at 37° C. After washing the cells in cold PBS, they were suspended in 0.4 ml of cytoplasmic extraction buffer (10 mM HEPES, pH 7.9, 10 mM KCl, 0.1 mM EDTA, 0.1 mM EGTA, 1 mM DTT, 0.5 mM phenylmethylsulfonylfluoride (PMSF), 2 μg/ml of leupeptin, 2 μg/ml aprotinin, 0.5 mg/ml benzamidine) for 15 min on ice. […]

AKT in Jurkat cells = experiment: Western blot of phosphorylated and total AKT; format: cell-based, human; conditions: 2 μg/ml (F035 printed '2 ml'), 15 hr
Description: The effect of F035 on phosphorylation of AKT was analyzed as follows. Jurkat cells (5×10^6) were serum starved and exposed to F035 for 15 h and 2 h with wortmannin at 37° C. The cells were either induced with cd3XL (cd3 crosslink) or left uninduced for 10 min at 37° C. and lysed in AKT lysis buffer and the proteins were resolved on 8% SDS-PAGE gels and analyzed by western-ECL using phospho-specific AKT (Ser 473; New England Biolabs) and total AKT antibody. An assay of the effect of F035 on p70S6 kinase can be carried out similarly, but using a Phosphoplus p70S6 kinase antibody kit (New England Biolabs) for analysis of p70S6 kinase (Ser 411, thr421/ser424) phosphorylation. […] There was, however, no change in the expression of total AKT.
The expression of total and phosphorylated forms of AKT was determined by western blot analysis. Jurkat cells cultured in medium containing 0.5% FBS were treated with F035 and pure extracts D1 and G1 (2.0 μg/ml) for 15 h at 37° C. The cells were lysed in AKT Iysis buffer (20 mM Tris-HCl, 150 mM NaCI, 1 mM EDTA, 1 mM EGTA, 1% Triton X-100, 2.5 mM sodium pyrophosphate, 1 mM 8-glycerol phosphate, 1 mM Na3VO4, […], 1 mM PMSF pH 7.5). Cellular protein (40 μg) was resolved on 8% SDS-polyacrylamide gel and electrotransferred onto nitrocellulose membrane. Membranes were probed first with phosphospecific AKT (Ser 473) or AKT antibody followed by goat anti rabbit antibody conjugated to horseradish peroxidase. Proteins were detected by chemiluminescence (ECL, Amersham, Arlington Heights, Ill.).

Jurkat cells = experiment: Mitochondrial membrane potential (DiOC6); format: cell-based, human; conditions: 2 μg/ml
Description: Measurement of mitochondrial membrane potential (Δψm). Mitochondrial Δψm was measured as described by Zamzami, et al., 1995. After treatment with F094, avicin D, or avicin G (2 μg/ml) at 37° C, Jurkat cells were incubated with 80 nM of DiOC6 for 15 minutes at room temperature. They were then analyzed on a cytofluorometer (Facscalibar, excitation: 488 nm and emission: 552 nm).

[1] = Biological assays of purified compounds (not specified)

C=C[C@](C)(O)CC/C=C(\CO)C(=O)O[C@H]1[C@H](O)[C@@H](O)[C@H](O[C@@](C)(C=C)CC/C=C(\CO)C(=O)O[C@H]2C[C@]3(C(=O)O[C@@H]4O[C@H](CO)[C@@H](O)[C@H](O)[C@H]4O[C@@H]4O[C@@H](C)[C@H](O[C@@H]5O[C@@H](CO)[C@H](O)[C@H]5O)[C@@H](O[C@@H]5O[C@H](CO)[C@@H](O)[C@H](O)[C@H]5O)[C@H]4O)[C@H](O)C[C@]4(C)C(=CC[C@@H]5[C@@]6(C)CC[C@H](O[C@@H]7O[C@H](CO[C@@H]8O[C@H](C)[C@H](O)[C@H](O)[C@H]8O[C@@H]8OC[C@@H](O)[C@H](O)[C@H]8O)[C@@H](O)[C@H](O)[C@H]7NC(C)=O)C(C)(C)[C@@H]6CC[C@]54C)[C@@H]3CC2(C)C)O[C@@H]1C [Fraction D1]
TNF-induced NF-κB activation (NF-κB in Jurkat cells): potent inhibitors
decrease in NF-κB levels (NF-κB in Jurkat cells; Jurkat): 87%
AKT phosphorylation (AKT in Jurkat cells): inhibited AKT phosphorylation
total AKT protein (AKT in Jurkat cells): inhibited
mitochondrial membrane potential (Δψm) (Jurkat cells; 16 hours): significant drop
mitochondrial membrane potential (Δψm) (Jurkat cells; up to 8 hours): did not produce any significant changes
biological activity relative to other compounds [1]: considerable biological activity

C=C[C@](C)(O)CC/C=C(\C)C(=O)O[C@H]1[C@H](O)[C@@H](O)[C@H](O[C@@](C)(C=C)CC/C=C(\CO)C(=O)O[C@H]2C[C@]3(C(=O)O[C@@H]4O[C@H](CO)[C@@H](O)[C@H](O)[C@H]4O[C@@H]4O[C@@H](C)[C@H](O[C@@H]5O[C@@H](CO)[C@H](O)[C@H]5O)[C@@H](O[C@@H]5O[C@H](CO)[C@@H](O)[C@H](O)[C@H]5O)[C@H]4O)[C@H](O)C[C@]4(C)C(=CC[C@@H]5[C@@]6(C)CC[C@H](O[C@@H]7O[C@H](CO[C@@H]8O[C@H](C)[C@H](O)[C@H](O)[C@H]8O[C@@H]8OC[C@@H](O)[C@H](O)[C@H]8O)[C@@H](O)[C@H](O)[C@H]7NC(C)=O)C(C)(C)[C@@H]6CC[C@]54C)[C@@H]3CC2(C)C)O[C@@H]1C [Fraction G1]
potency in inhibiting TNF-induced NF-κB relative to mixture (NF-κB in Jurkat cells; Jurkat): more potent than the mixture
TNF-induced NF-κB activation (NF-κB in Jurkat cells): potent inhibitors
decrease in TNF-induced NF-κB (NF-κB in Jurkat cells; Jurkat, 0.5 μg/ml for 16 h, TNF 1 nM): ~50%
effect of DTT (100 μM, 2 h pretreatment) on inhibition of NF-κB activation (NF-κB in Jurkat cells; Jurkat, 2 μg/ml for 8 h): reversed
inhibition of TNF-induced NF-κB (NF-κB in Jurkat cells; Jurkat, 2 μg/ml for 16 h, TNF 1 nM): almost complete inhibition
time of maximal inhibition of TNF-induced NF-κB (NF-κB in Jurkat cells; Jurkat, 2 μg/ml, 1-16 hours, TNF 1 nM): 16 h
decrease in NF-κB levels (NF-κB in Jurkat cells; Jurkat): 54%
AKT phosphorylation (AKT in Jurkat cells): inhibited AKT phosphorylation
total AKT protein (AKT in Jurkat cells): inhibited
mitochondrial membrane potential (Δψm) (Jurkat cells; 16 hours): significant drop
mitochondrial membrane potential (Δψm) (Jurkat cells; up to 8 hours): did not produce any significant changes
biological activity relative to other compounds [1]: more biologically active than D1

— US20060148732A1, “Inhibition of NF-kappaB by triterpene compositions” (priority 2000, published 2006)
